Results reported in ChEMBL document CHEMBL2040812, “A novel franchetine type norditerpenoid isolated from the roots of Aconitum carmichaeli Debx. with potential analgesic activity and less toxicity” (Bioorg Med Chem Lett, 2012).

Columns and labels:
[1] = Therapeutic index, ratio of LD50 in Kunming mouse to ED50 for analgesic activity in mouse; type: organism-based; settings: in vivo, read-out: Ratio LD50/ED50
[2] = Toxicity in ig dosed Kunming mouse; type: organism-based; settings: in vivo, po
Mus musculus = assay: Analgesic activity in ig dosed mouse by hot plate test; type: functional; settings: po

SMILES	selectivity ratio [1]	LD50 [2]	ED50 (Mus musculus)
CCN1C[C@]2(COC)CC[C@H](OC)[C@@]34C1O[C@H](C=C1[C@H]5[C@@H](O)[C@H](C[C@H]53)[C@@H](OC)[C@H]1O)[C@H]24 [GUIWULINE]	33	500 mg/kg	15 mg/kg
CCN1C[C@]2(COC)[C@H](O)C[C@H](OC)[C@@]34[C@@H]5C[C@@]6(O)[C@H](OC(=O)c7ccccc7)[C@@H]5[C@@](OC(C)=O)([C@@H]([C@H](OC)[C@H]23)[C@@H]14)[C@@H](O)[C@@H]6OC [ACONITINE]	2	0.16 mg/kg	0.08 mg/kg
